ChEMBL document CHEMBL5376006, “Discovery of a Hidden Pocket beneath the NES Groove by Novel Noncovalent CRM1 Inhibitors” (J Med Chem, 2023)
The source made the active and inactive calls. The rule behind the calls is not given here.

What was measured:
[1] = Cytotoxicity against HEK293T cells assessed as inhibition of cell growth incubated for 72 hrs by SRB assay; assay type: toxicity, cell-based, HEK-293T; conditions: human
MOLT-4 = test: Antiproliferative activity against human MOLT-4 cells assessed as inhibition of cell growth incubated for 72 hrs by CellTiter Glo assay; assay type: functional, cell-based; conditions: MOLT-4, 72 h, pooled result: one value given for 6 cell lines, strains, targets or settings
Exportin-1 [2] = biological target: T1, Exportin-1 (Homo sapiens, UniProt O14980); test: Covalent inhibition of CRM1 (unknown origin) binding to GST-tagged NES PKI at 20 uM incubated for 2 hrs in presence of DTT by Coomassie brilliant blue staining based pull-down assay
T1 sequence (O14980 whole entry): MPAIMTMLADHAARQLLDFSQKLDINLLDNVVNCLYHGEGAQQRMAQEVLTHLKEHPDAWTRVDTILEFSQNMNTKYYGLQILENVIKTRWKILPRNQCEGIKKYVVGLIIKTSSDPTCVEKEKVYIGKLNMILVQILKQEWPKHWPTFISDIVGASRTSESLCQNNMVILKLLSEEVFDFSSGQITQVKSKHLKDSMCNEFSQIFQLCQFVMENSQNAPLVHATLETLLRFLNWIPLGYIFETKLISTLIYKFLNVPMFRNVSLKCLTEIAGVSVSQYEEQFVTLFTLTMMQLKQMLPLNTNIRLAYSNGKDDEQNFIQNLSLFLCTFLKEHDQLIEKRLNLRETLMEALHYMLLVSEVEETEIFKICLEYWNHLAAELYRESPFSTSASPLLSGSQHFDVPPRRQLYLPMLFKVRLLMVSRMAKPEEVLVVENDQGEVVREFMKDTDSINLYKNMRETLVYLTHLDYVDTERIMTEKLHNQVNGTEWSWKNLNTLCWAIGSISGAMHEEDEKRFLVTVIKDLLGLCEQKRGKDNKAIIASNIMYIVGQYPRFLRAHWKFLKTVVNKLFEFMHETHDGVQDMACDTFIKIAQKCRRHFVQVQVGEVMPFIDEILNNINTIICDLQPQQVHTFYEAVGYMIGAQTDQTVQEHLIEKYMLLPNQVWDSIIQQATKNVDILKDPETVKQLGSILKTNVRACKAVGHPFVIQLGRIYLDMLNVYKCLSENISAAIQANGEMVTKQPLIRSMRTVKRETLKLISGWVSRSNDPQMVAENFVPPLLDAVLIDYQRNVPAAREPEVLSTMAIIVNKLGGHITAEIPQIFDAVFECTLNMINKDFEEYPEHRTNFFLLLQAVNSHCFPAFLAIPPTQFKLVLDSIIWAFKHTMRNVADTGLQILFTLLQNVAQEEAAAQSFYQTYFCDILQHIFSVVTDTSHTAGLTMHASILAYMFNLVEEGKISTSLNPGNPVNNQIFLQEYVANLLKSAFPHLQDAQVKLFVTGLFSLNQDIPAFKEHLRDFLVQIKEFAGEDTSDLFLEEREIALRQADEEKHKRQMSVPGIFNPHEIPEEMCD

HeLa [3] = test: Antiproliferative activity against human HeLa cells assessed as inhibition of cell growth incubated for 72 hrs by SRB assay; assay type: functional, cell-based
Ishikawa = test: Antiproliferative activity against human Ishikawa cells assessed as inhibition of cell growth at 20 uM incubated for 72 hrs by SRB assay; assay type: functional, cell-based
MDA-MB-453 = test: Antiproliferative activity against human MDA-MB-453 cells assessed as inhibition of cell growth at 20 uM incubated for 72 hrs by SRB assay; assay type: functional, cell-based
[4] = tested on: Exportin-1 (Homo sapiens), O14980 [C528S]; test: Inhibition of human CRM1 C528S mutant nuclear export transfected in human MCF7 cells at 50 uM incubated for 4 hrs by confocal microscopic analysis; assay type: cell-based
Sequence of Exportin-1 (Homo sapiens), O14980 [C528S] (O14980 whole entry C528S): as the sequence (O14980 whole entry) above, with C528S counted along it

HeLa [5] = test: Antiproliferative activity against human HeLa cells assessed as inhibition of cell growth at 20 uM incubated for 72 hrs by SRB assay; assay type: functional, cell-based
A549 [6] = test: Induction of apoptosis in human A549 cells assessed as caspase-3 cleavage at 50 uM incubated for 18 hrs by Western blot analysis; assay type: functional, cell-based
OVCAR-8 = test: Antiproliferative activity against human OVCAR-8 cells assessed as inhibition of cell growth at 20 uM incubated for 72 hrs by SRB assay; assay type: functional, cell-based
Exportin-1 [7] = biological target: T1, Exportin-1; test: Inhibition of CRM1 cargo nuclear export in digitonin-permeabilized human HeLa cells at 50 uM incubated for 4 hrs by confocal microscopic analysis; assay type: cell-based
A549 [8] = test: Induction of apoptosis in human A549 cells assessed as activation of phosphorylated JNK at 50 uM incubated for 18 hrs by Western blot analysis; assay type: functional, cell-based
MCF7 = test: Antiproliferative activity against human MCF7 cells assessed as inhibition of cell growth at 20 uM incubated for 72 hrs by SRB assay; assay type: functional, cell-based
SW480 = test: Antiproliferative activity against human SW480 cells assessed as inhibition of cell growth at 20 uM incubated for 72 hrs by SRB assay; assay type: functional, cell-based
A2780 = test: Antiproliferative activity against human A2780 cells assessed as inhibition of cell growth at 20 uM incubated for 72 hrs by SRB assay; assay type: functional, cell-based
Exportin-1 [9] = biological target: T1, Exportin-1; test: Inhibition of CRM1 cargo nuclear export in human MCF7 cells at 50 uM incubated for 4 hrs by confocal microscopic analysis; assay type: cell-based
Exportin-1 [10] = biological target: T1, Exportin-1; test: Binding affinity to CRM1 (unknown origin) assessed as inhibition of CRM1 binding to IAF-conjugated NES PKI by measuring dissociation constant in the presence of RanGTP by competitive MST analysis
Exportin-1 [11] = biological target: T1, Exportin-1; test: Binding affinity to CRM1 in human HeLa assessed as thermal stabilization at 20 uM incubated at 60 to 84 degreeC for 3 mins by CETSA based Western blot analysis; assay type: cell-based
HuCCT-1 = test: Antiproliferative activity against human HuCCT-1 cells assessed as inhibition of cell growth at 20 uM incubated for 72 hrs by SRB assay; assay type: functional, cell-based
A549 [12] = test: Induction of apoptosis in human A549 cells assessed as PARP-1 cleavage at 50 uM incubated for 18 hrs by Western blot analysis; assay type: functional, cell-based
A549 [13] = test: Inhibition of colony formation in human A549 cells at 20 uM incubated for 48 hrs by crystal violet staining based analysis; assay type: functional, cell-based
PANC-1 = test: Antiproliferative activity against human PANC-1 cells assessed as inhibition of cell growth at 20 uM incubated for 72 hrs by SRB assay; assay type: functional, cell-based
Exportin-1 [14] = biological target: T1, Exportin-1; test: Inhibition of CRM1 cargo nuclear export in human A549 cells at 50 uM incubated for 4 hrs by confocal microscopic analysis; assay type: cell-based
A549 [15] = test: Induction of apoptosis in human A549 cells at 50 uM incubated for 18 hrs by Annexin V-FITC/PI staining based flow cytometric analysis; assay type: functional, cell-based
A549 [16] = test: Antiproliferative activity against human A549 cells assessed as inhibition of cell growth at 20 uM incubated for 72 hrs by SRB assay; assay type: functional, cell-based
[17] = Solubility of the compound in water; assay type: physicochemical
HepG2 = test: Antiproliferative activity against human HepG2 cells assessed as inhibition of cell growth at 20 uM incubated for 72 hrs by SRB assay; assay type: functional, cell-based
A549 [18] = test: Inhibition of colony formation in human A549 cells at 40 uM incubated for 48 hrs by crystal violet staining based analysis relative to control; assay type: functional
[19] = Toxicity in mouse assessed as body weight loss at 100 mg/kg, ip administered for 2 weeks; assay type: organism-based; conditions: in vivo, 336 h
[20] = Toxicity in mouse at 100 mg/kg, ip administered for 2 weeks; assay type: organism-based; conditions: in vivo, 336 h
SiHa [21] = test: Antiproliferative activity against human SiHa cells assessed as inhibition of cell growth incubated for 1 hrs by CellTiter Glo assay; assay type: functional, cell-based
HCT-116 [22] = test: Antiproliferative activity against human HCT-116 cells assessed as inhibition of cell growth incubated for 72 hrs by CellTiter Glo assay; assay type: functional, cell-based; conditions: HCT-116, 72 h
HCT-116 [23] = test: Antiproliferative activity against human HCT-116 cells assessed as inhibition of cell growth incubated for 1 hrs by CellTiter Glo assay; assay type: functional, cell-based; conditions: HCT-116, 1 h
SiHa [24] = test: Antiproliferative activity against human SiHa cells assessed as inhibition of cell growth incubated for 72 hrs by CellTiter Glo assay; assay type: functional, cell-based
SK-N-SH [25] = test: Antiproliferative activity against human SK-N-SH cells assessed as inhibition of cell growth incubated for 72 hrs by CellTiter Glo assay; assay type: functional, cell-based
SK-N-SH [26] = test: Antiproliferative activity against human SK-N-SH cells assessed as inhibition of cell growth incubated for 1 hrs by CellTiter Glo assay; assay type: functional, cell-based
Exportin-1 [27] = biological target: T1, Exportin-1; test: Inhibition of GFP-fused CRM1 cargo nuclear export in human HeLa cells at 200 uM incubated for 4 hrs by confocal microscopic analysis; assay type: cell-based
Exportin-1 [28] = biological target: T1, Exportin-1; test: Inhibition of CRM1 (unknown origin) binding to GST-tagged NES PKI assessed as CRM1/NES band ratio incubated for 1.5 hrs by Coomassie brilliant blue staining based pull-down assay (reference value: 1.00); parameters: concentration or dose not given beside the values
Exportin-1 [29] = biological target: T1, Exportin-1; test: Inhibition of CRM1 (unknown origin) binding to GST-tagged NES PKI at 100 uM incubated for 1.5 hrs by Coomassie brilliant blue staining based pull-down assay
Exportin-1 [30] = biological target: T1, Exportin-1; test: Inhibition of CRM1 (unknown origin) binding to GST-tagged NES PKI at 100 uM incubated for 2 hrs in presence of DTT by Coomassie brilliant blue staining based pull-down assay
Exportin-1 [31] = biological target: T1, Exportin-1; test: Non-covalent inhibition of CRM1 (unknown origin) binding to GST-tagged NES PKI at 20 uM incubated for 2 hrs in presence of DTT by Coomassie brilliant blue staining based pull-down assay

SMILES: O=C(/C=C\n1cnc(-c2cc(C(F)(F)F)cc(C(F)(F)F)c2)n1)NNc1cnccn1 [SELINEXOR]
- IC50 at 72 h [1]: 730 nM
- IC50 (MOLT-4): 34 nM
- inhibition (Exportin-1 [2]): inactive
- IC50 (HeLa [3]): 430 nM

SMILES: O=C(O)c1ccc(N2CCN(c3cc(C(F)(F)F)ccc3C(F)(F)F)CC2)c(NC(=O)c2ccc(Br)cc2)c1
- Activity (Ishikawa): Active
- Activity (MDA-MB-453): Active
- IC50 at 72 h [1]: 40400 nM
- inhibition [4]: inactive
- Activity (HeLa [5]): Active
- Activity (A549 [6]): Active
- Activity (OVCAR-8): Active
- inhibition (Exportin-1 [7]): Active
- Activity (A549 [8]): Active
- Activity (MCF7): Active
- Activity (SW480): Active
- Activity (A2780): Active
- inhibition (Exportin-1 [9]): Active
- Kd (Exportin-1 [10]): 1800 nM
- Activity (Exportin-1 [11]): Active
- Activity (HuCCT-1): Active
- Activity (A549 [12]): Active
- inhibition (A549 [13]): Active
- Activity (PANC-1): Active
- inhibition (Exportin-1 [14]): Active
- Activity (A549 [15]): Active
- IC50 (HeLa [3]): 15200 nM
- Activity (A549 [16]): Active
- solubility [17]: < 0.14 µg/mL
- Activity (HepG2): Active
- inhibition at 40 µM (A549 [18]): 100%

SMILES: O=C(O)c1ccc(N2CCN(c3cc(C(F)(F)F)ccc3C(F)(F)F)CC2)c(NC(=O)c2ccc(Cl)cc2)c1
- Activity (Ishikawa): Active
- Activity (MDA-MB-453): Active
- IC50 at 72 h [1]: 39000 nM
- inhibition [4]: inactive
- Activity (HeLa [5]): Active
- Activity (A549 [6]): Active
- Activity (OVCAR-8): Active
- Activity [19]: Non-Toxic
- inhibition (Exportin-1 [7]): Active
- Activity (A549 [8]): Active
- Activity (MCF7): Active
- Activity [20]: Non-Toxic
- Activity (SW480): Active
- Activity (A2780): Active
- inhibition (Exportin-1 [9]): Active
- Kd (Exportin-1 [10]): 3600 nM
- Activity (Exportin-1 [11]): Active
- Activity (HuCCT-1): Active
- Activity (A549 [12]): Active
- inhibition (A549 [13]): Active
- Activity (PANC-1): Active
- inhibition (Exportin-1 [14]): Active
- Activity (A549 [15]): Active
- IC50 (HeLa [3]): 14600 nM
- Activity (A549 [16]): Active
- solubility [17]: < 0.14 µg/mL
- Activity (HepG2): Active
- inhibition at 40 µM (A549 [18]): 100%

SMILES: O=C(O)c1ccc(N2CCN(c3cc(C(F)(F)F)cc(C(F)(F)F)c3)CC2)c(NC(=O)c2ccc(Br)cc2)c1
- Activity (Ishikawa): Active
- Activity (MDA-MB-453): Active
- IC50 at 72 h [1]: 30900 nM
- inhibition [4]: inactive
- Activity (HeLa [5]): Active
- Activity (A549 [6]): Active
- Activity (OVCAR-8): Active
- inhibition (Exportin-1 [7]): Active
- Activity (A549 [8]): Active
- Activity (MCF7): Active
- Activity (SW480): Active
- Activity (A2780): Active
- inhibition (Exportin-1 [9]): Active
- Kd (Exportin-1 [10]): 1600 nM
- Activity (Exportin-1 [11]): Active
- Activity (HuCCT-1): Active
- Activity (A549 [12]): Active
- inhibition (A549 [13]): Active
- Activity (PANC-1): Active
- inhibition (Exportin-1 [14]): Active
- Activity (A549 [15]): Active
- IC50 (HeLa [3]): 10200 nM
- Activity (A549 [16]): Active
- solubility [17]: < 0.14 µg/mL
- Activity (HepG2): Active
- inhibition at 40 µM (A549 [18]): 100%

SMILES: CCC(=C/[C@H](C)C/C=C/C(C)=C/[C@@H](C)C(=O)[C@@H](C)[C@H](O)[C@@H](C)C/C(C)=C/C(=O)O)/C=C/[C@@H]1OC(=O)C=C[C@@H]1C [LEPTOMYCIN B]
- IC50 (SiHa [21]): 0.3 nM
- IC50 (HCT-116 [22]): 0.3 nM
- IC50 (HCT-116 [23]): 0.3 nM
- IC50 (SiHa [24]): 0.3 nM
- IC50 (SK-N-SH [25]): 0.3 nM
- IC50 (SK-N-SH [26]): 0.3 nM

SMILES: Cc1ccc(C)c(N2CCN(c3ccc(C(=O)O)cc3NC(=O)c3ccc(Cl)cc3)CC2)c1
- inhibition (Exportin-1 [27]): inactive
- Ratio (Exportin-1 [28]): 0.02
- Kd (Exportin-1 [10]): 12000 nM
- inhibition (Exportin-1 [29]): Active
- inhibition (Exportin-1 [30]): Active

SMILES: CC(C)CCNC/C=C/[S+]([O-])c1cc(C(F)(F)F)cc(C(F)(F)F)c1 (stereo unspecified)
- inhibition (Exportin-1 [31]): inactive
